According to article PMC11440508, “Dually Labeled Neurotensin NTS1R Ligands for Probing Radiochemical and Fluorescence-Based Binding Assays” (Journal of Medicinal Chemistry, 2024):

Columns and labels:
NTS1R = NTS1R (Homo sapiens, UniProt P30989); assay: Radiochemical competition binding, adherent CHO-hNTS1R cells; settings: labeled probe [^3H]13 (1.3 nM), 90 min, 23 °C, read-out: RC adherent cells: pKi ± SEM (converted)
[1] = Radiochemical purity after storage (RP-HPLC); type: physicochemical; settings: stock solution, degradation by radiolysis
Experimental: Figure 2 (A) Radiochemical purities (>99%) of [^3H]13 and [^3H]18 directly after synthesis determined by RP-HPLC analysis. (B) Radiochemical purities of [^3H]13 and [^3H]18 determined 11 months after synthesis. The purities amounted to 92% ([^3H]13) and 80% ([^3H]18).
Over a period of 11 months, degradation of both dually labeled ligands by radiolysis was low (Figure 2B).
A solution of succinimidyl [^3H]propionate (molar activity: 3.89 TBq/mmol, purchased from Novandi, Södertälje, Sweden) (55.5 MBq, 0.75 mL, 14.3 nmol) in n-heptane/EtOAc 3:2 v/v was transferred from the delivered ampule into a 1.5 mL polypropylene reaction vessel with screw cap, and the solvent was removed in a vacuum concentrator (30 °C, ca. 30 min). […] To quantify the activity of the two radioligands and to determine the molar concentration, 2 × 2 μL of the preliminary stock solution were added to 998 μL of DMSO/H2O 3:7 v/v, and 4 × 10 μL of these dilutions were counted in 3 mL of liquid scintillator (Rotiscint Eco Plus, Carl Roth, Karlsruhe, Germany) with a Tri-Carb 3100TR liquid scintillation counter (PerkinElmer). […] The molar activity of the labeling reagent succinimidyl [^3H]propionate was determined by liquid chromatography–mass spectrometry (LC-MS) analysis. Coinjection of “cold” succinimidyl propionate allowed the quantification of the incorporated tritium (Novandi, Södertälje, Sweden). […]

NTS1R, sequence (P30989 whole entry): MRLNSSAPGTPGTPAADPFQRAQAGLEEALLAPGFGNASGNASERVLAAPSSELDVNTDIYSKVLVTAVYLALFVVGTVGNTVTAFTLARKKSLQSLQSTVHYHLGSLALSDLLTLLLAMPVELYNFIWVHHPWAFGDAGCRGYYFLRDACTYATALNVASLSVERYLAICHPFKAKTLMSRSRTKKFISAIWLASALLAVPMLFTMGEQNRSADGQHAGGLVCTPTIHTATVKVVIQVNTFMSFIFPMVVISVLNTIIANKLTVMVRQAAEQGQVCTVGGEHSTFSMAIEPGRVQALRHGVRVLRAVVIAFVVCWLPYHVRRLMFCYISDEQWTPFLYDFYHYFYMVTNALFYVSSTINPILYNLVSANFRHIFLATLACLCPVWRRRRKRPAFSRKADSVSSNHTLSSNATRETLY

SMILES	Ki (NTS1R)	Radiochemical purity 11 months after synthesis [1]
CCC(=O)NCCCCNC(=O)N=C(N)NCCC[C@H](NC(=O)[C@@H]1CCCN1C(=O)[C@@H](NC(=O)CCc1cn(CCCNC(=O)c2ccc(-c3c4ccc(=[N+](C)C)cc-4oc4cc(N(C)C)ccc34)c(C(=O)[O-])c2)nn1)C1CCNCC1)C(=O)N[C@@H](CCCNC(=N)N)C(=O)N1CCC[C@H]1C(=O)N[C@@H](Cc1ccc(O)cc1)C(=O)N[C@H](C(=O)N[C@@H](CC(C)C)C(=O)O)[C@@H](C)CC [Compound 13, N^α-(3-(1-N-((1-Carboxylato-2-(6-(dimethylamino)-3-(dimethyliminio)-3H-xanthen-9-yl)phen-5-yl)1-oxomethyl)aminoprop-3-yl-1H-1,2,3-triazol-4-yl)propanoyl)-2-(piperidin-4-yl)-Gly-Pro-N^ω-[(4-(N-propanoyl)aminobutyl)aminocarbonyl]Arg-Arg-Pro-Tyr-Ile-Leu Tris(hydrotrifluoroacetate)]	1.51 nM	–
CCC(=O)NCCCCNC(=O)NC(=N)NCCC[C@H](NC(=O)[C@@H]1CCCN1C(=O)[C@@H](NC(=O)CCc1cn(CCCNC(=O)c2ccc(-c3c4ccc(=[N+](C)C)cc-4oc4cc(N(C)C)ccc34)c(C(=O)[O-])c2)nn1)C1CCNCC1)C(=O)N[C@@H](CCCNC(=N)N)C(=O)N1CCC[C@H]1C(=O)N[C@@H](Cc1ccc(O)cc1)C(=O)N[C@H](C(=O)N[C@@H](CC(C)C)C(=O)O)[C@@H](C)CC [[^3H]13]	–	92%
